PMC6651613, “Identification and Characterization of trans-Isopentenyl Diphosphate Synthases Involved in Herbivory-Induced Volatile Terpene Formation in Populus trichocarpa” (Molecules, 2019)

Columns and labels:
Assay in all cases: LC-MS/MS product analysis
Format in all cases: biochemical
Settings in all cases: 50 uM IPP and 50 uM DMAPP, 10 mM MgCl2, 0.1 mM MnCl2, pH 7.2, 30 °C, 1 h
PtGPPS1.LSU = target: T1, PtGPPS1.LSU (Populus trichocarpa, UniProt A0A514TNQ6)
T1 construct: N-terminally truncated ORF (delta71, signal peptide removed), C-terminal His tag (pASK-IBA33+), E. coli TOP10, Ni-NTA purified; cloning primer encodes MPTFDFKSY

[1] = target: T2, PtGPPS1.LSU + PtGPPS.SSU1 (Populus trichocarpa, UniProt A0A514TNQ6)
T2 construct: equal amounts of separately purified LSU (delta71) and SSU1 (delta41) mixed; C-terminal His tags, E. coli TOP10; heterodimer proposed, not isolated; with Geranyl diphosphate synthase small subunit 1

[2] = target: T3, PtGPPS2.LSU + PtGPPS.SSU1 (Populus trichocarpa, UniProt A0A514TNS4)
T3 construct: separately purified LSU (delta72) and SSU1 (delta41) mixed; C-terminal His tags, E. coli TOP10; heterodimer proposed, not isolated; with Geranyl diphosphate synthase small subunit 1

PtGPPS2.LSU = target: T4, PtGPPS2.LSU (Populus trichocarpa, UniProt A0A514TNS4)
T4 construct: N-terminally truncated ORF (delta72, signal peptide removed), C-terminal His tag (pASK-IBA33+), E. coli TOP10, Ni-NTA purified; cloning primer encodes MPTFDFKSY

PtFPPS1 = target: T5, PtFPPS1 (Populus trichocarpa, UniProt A0A514TNK7)
T5 construct: full-length ORF, N-terminal His tag (pASK-IBA37+), E. coli TOP10, Ni-NTA purified; cloning primer encodes MADLKSTF
T5 sequence (A0A514TNK7 1-342): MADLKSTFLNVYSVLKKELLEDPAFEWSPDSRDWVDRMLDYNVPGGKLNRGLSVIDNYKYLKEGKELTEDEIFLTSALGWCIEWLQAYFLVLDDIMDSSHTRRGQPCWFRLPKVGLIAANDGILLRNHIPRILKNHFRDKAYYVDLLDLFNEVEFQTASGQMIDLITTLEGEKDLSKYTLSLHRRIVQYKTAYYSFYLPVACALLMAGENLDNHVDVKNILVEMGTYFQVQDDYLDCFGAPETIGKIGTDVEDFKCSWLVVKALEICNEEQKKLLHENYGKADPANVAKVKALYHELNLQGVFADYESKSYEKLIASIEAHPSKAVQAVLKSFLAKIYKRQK

T2 sequence (A0A514TNQ6 70-365): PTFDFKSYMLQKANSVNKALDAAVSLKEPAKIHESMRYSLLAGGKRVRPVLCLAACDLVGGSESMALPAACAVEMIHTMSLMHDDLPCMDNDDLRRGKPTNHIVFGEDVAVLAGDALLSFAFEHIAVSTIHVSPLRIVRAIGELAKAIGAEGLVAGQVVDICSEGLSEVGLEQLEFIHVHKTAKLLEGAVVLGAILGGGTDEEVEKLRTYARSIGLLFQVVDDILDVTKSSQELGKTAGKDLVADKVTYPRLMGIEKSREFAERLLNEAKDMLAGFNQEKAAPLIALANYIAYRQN
T2 sequence (A0A514TNK9 42-312 partner): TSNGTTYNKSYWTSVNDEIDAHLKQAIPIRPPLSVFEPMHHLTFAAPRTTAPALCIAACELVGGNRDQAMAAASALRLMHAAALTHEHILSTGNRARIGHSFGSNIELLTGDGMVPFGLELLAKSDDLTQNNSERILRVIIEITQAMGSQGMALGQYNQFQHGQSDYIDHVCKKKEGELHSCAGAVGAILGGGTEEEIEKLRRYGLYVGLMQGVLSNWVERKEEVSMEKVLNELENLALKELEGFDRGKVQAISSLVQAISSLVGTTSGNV
T1 sequence (A0A514TNQ6 70-365): as the sequence (A0A514TNQ6 70-365) above
T3 sequence (A0A514TNS4 71-366): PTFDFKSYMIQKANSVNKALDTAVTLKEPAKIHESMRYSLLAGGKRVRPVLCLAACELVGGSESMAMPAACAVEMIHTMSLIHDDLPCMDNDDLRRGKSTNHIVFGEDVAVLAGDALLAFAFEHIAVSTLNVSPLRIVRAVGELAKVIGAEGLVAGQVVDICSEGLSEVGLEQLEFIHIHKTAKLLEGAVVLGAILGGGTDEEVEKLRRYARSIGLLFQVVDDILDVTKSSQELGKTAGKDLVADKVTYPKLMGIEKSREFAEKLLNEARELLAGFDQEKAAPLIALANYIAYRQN
T3 sequence (A0A514TNK9 42-312 partner): as the sequence (A0A514TNK9 42-312 partner) above
T4 sequence (A0A514TNS4 71-366): as the sequence (A0A514TNS4 71-366) above

SMILES	LC-MS/MS product analysis (PtGPPS1.LSU)	LC-MS/MS product analysis [1]	LC-MS/MS product analysis [2]	LC-MS/MS product analysis (PtGPPS2.LSU)	LC-MS/MS product analysis (PtFPPS1)
CC(C)=CCOP(=O)(O)OP(=O)(O)O [DMAPP]	produced GPP and GGPP when tested with IPP and DMAPP as substrates	incubated with IPP and DMAPP either in the presence (black bars) or absence	incubated with IPP and DMAPP either in the presence (black bars) or absence	produced GPP and GGPP when tested with IPP and DMAPP as substrates	PtFPPS1 catalyzes the condensation of IPP and DMAPP to FPP and traces of GGPP
C=C(C)CCOP(=O)(O)OP(=O)(O)O [IPP]	produced GPP and GGPP when tested with IPP and DMAPP as substrates	incubated with IPP and DMAPP either in the presence (black bars) or absence	incubated with IPP and DMAPP either in the presence (black bars) or absence	produced GPP and GGPP when tested with IPP and DMAPP as substrates	PtFPPS1 catalyzes the condensation of IPP and DMAPP to FPP and traces of GGPP
